Laboratory results: patent publication US20200171065A1, “METHOD FOR TREATING LIVER DISEASE WITH KINSENOSIDE” (HUAZHONG UNIVERSITY OF SCIENCE AND TECHNOLOGY, priority 2017, published 2020)
Entries after “also recorded” stand apart in the source; their conditions may differ. Where two headings read alike, the source gives them in different places.

Columns and labels:
[1] = system: C57BL/6J mice with alcoholic fatty liver; assay: Alcoholic fatty liver (5% alcoholic Lieber-DeCarli liquid diet); type: in vivo
Method: C57BL/6J mice aged 7-8 weeks were raised in the SPF experimental animal center of Tongji Medical College of Huazhong University of Science and Technology. They were provided with standard diet and drinking water. The room temperature was controlled at 23±2° C. After 7 days of adaptive feeding, they were given drugs by intragastric administration. […] The mice were fed with a 5% alcoholic Lieber-DeCarli liquid diet and developed alcoholic fatty liver disease. The mice were administered with alcohol and drugs. Spherically, drinking water were administered to the control group and the model group, and different doses were administered to the dose groups.

[2] = system: C57BL/6J mice with alcoholic liver fibrosis; assay: Alcoholic liver fibrosis (Lieber-DeCarli liquid diet + CCl4); type: in vivo
Method: C57BL/6J mice aged 8 weeks were raised in the SPF experimental animal center of Tongji Medical College of Huazhong University of Science and Technology. They were provided with standard diet and drinking water. The room temperature was controlled at 23±2° C. After 7 days of adaptive feeding, they were given drugs by intragastric administration.
The mice were fed with a 5% alcoholic Lieber-DeCarli liquid diet and intraperitoneal injection of CCl4 (CCl4 was intraperitoneally injected twice a week for the last four weeks). The mice were developed alcoholic fatty liver disease. The mice were administered with alcohol and drugs. Spherically, drinking water were administered to the control group and the model group, and different doses were administered to the dose groups.

[3] = system: C57BL/6 mice with HFFD nonalcoholic fatty liver; assay: Nonalcoholic fatty liver induced by high-fat and high fructose diet (HFFD); type: in vivo
Method: 60 SPF male C57BL/6 mice aged 4 weeks were raised in the SPF experimental animal center of Tongji Medical College of Huazhong University of Science and Technology. They were provided with standard diet and drinking water. The room temperature was controlled at 23±2° C. After 7 days of adaptive feeding, the mice were randomly divided into a control group with normal diet and a high-fat and high fructose diet group (40% fat, 40% fructose, 20% protein, HFFD). […] The mice were fed according to the groups, and the control group and the model group were fed with the same dose of normal saline for 4 weeks. […] The development of nonalcoholic fatty liver disease is closely related to the lipid levels of the liver and serum.

[4] = system: FVB/N mice with serine/threonine kinase (AKT) overexpressed in the liver (NAFL-NASH-liver fibrosis); details: for Diameter of hepatic portal vein / Diameter of inferior vena cava / Length of the spleen / Oblique diameter of right lobe of liver / Thickness of the left lobe of liver / Thickness of the spleen: type B ultrasound
Method: The serine/threonine kinase (AKT) and transposase plasmids were injected into the liver of the mice by a transposition system through hydrodynamics. The serine/threonine kinase was specifically overexpressed in the liver, and the mice except the control group were modeled. One week later, nonalcoholic fatty liver (NAFL) was formed; two weeks later, steatohepatitis (NASH) was formed; and four weeks later, a primary hepatic fibrosis model was established. In the formation of NAFL-NASH-liver fibrosis, the therapeutic effect of KD was observed.

[5] = low, medium and high dose of KD
[6] = Liver fibrosis stage, KD 30 mg/kg
[7] = high, medium and low dose groups

O=C1C[C@@H](O[C@@H]2O[C@H](CO)[C@@H](O)[C@H](O)[C@H]2O)CO1 [KD]
fat vacuoles / histopathological damage of liver (H&E staining) ([1]; 40 and 20 mg/kg KD): could reduce histopathological damage of liver and reduce fat vacuoles in liver of mice; also recorded: fat vacuoles were reduced
SOD activity in the liver / oxidative stress injuries ([1]; AFL mice): increased the activity of superoxide dismutase (SOD) in the liver of AFL and ALF mice; also recorded: could reverse the oxidative stress injuries
serum ALT ([1]; AFL mice): decreased the serum alanine aminotransferase (ALT) of AFL and ALF mice
secretion of TNF-α and IL-6 ([1]; high and medium dose groups): inhibited the secretion of TNF and IL6 in AFL and ALF; also recorded: reduced the secretion of the inflammatory cytokine TNF-α and IL-6
therapeutic effect on alcoholic fatty liver (overall) ([1]; mouse, in vivo): has a good therapeutic effect on alcoholic fatty liver and alcoholic liver fibrosis
fibrosis degree (Masson staining) ([2]; 40 and 20 mg/kg KD): can significantly reduce the degree of fibrosis in mice; also recorded: the fibrosis degree was reduced
inflammatory cells and Mallory bodies (H&E staining) ([2]; 40 and 20 mg/kg KD): the inflammatory cells in the KD group were reduced compared with the model group
SOD activity in the liver homogenate / oxidative stress injuries ([2]; ALF mice): increased the activity of superoxide dismutase (SOD) in the liver of AFL and ALF mice; also recorded: could reverse the oxidative stress injuries
serum ALT ([2]; ALF mice): decreased the serum alanine aminotransferase (ALT) of AFL and ALF mice; also recorded: decreased after KD treatment
secretion of TNF-α and IL-6 ([2]; high and medium dose groups): inhibited the secretion of TNF and IL6 in AFL and ALF; also recorded: reduced the secretion of the inflammatory cytokine TNF-α and IL-6
therapeutic effect on alcoholic liver fibrosis (overall) ([2]; mouse, in vivo): has a good therapeutic effect on alcoholic fatty liver and alcoholic liver fibrosis
free fatty acid level in the serum ([3]; each dose of KD): could significantly inhibit the level of free fatty acids; also recorded: could significantly inhibit the free fatty acid level in the serum
triglyceride in the liver ([3]; each dose of KD): could significantly inhibit the level of triglyceride in the liver
expression level of total macrophage marker molecule F4/80 ([3]; high dose KD): inhibited the expression level of total macrophage marker molecule F4/80; also recorded: could inhibit the expression level of the total macrophage marker molecule F4/80
liver lipid degeneration, size and number of lipid droplets (photos, H&E staining) ([3]; high, middle and low dose groups, 4 weeks): could significantly reduce liver lipid denaturation induced by high-fat and high-fructose diet and reduce the size and number of lipid droplets in liver; also recorded: could significantly reduce the lipid degeneration and inhibit the size and number of lipid droplets
secretion of anti-inflammatory cytokine IL-10 in serum [3, 5]: promoted the secretion of the anti-inflammatory cytokine IL-10; also recorded: increase the secretion of anti-inflammatory cytokine IL-10
secretion of proinflammatory cytokines IL-6, MCP-1, IFN-γ, TNF-α and IL-2 in serum [3, 5]: significantly inhibited the secretion of pro-inflammatory cytokines IL6, MCP-1, IFN-γ, TNF-α and IL-2; also recorded: can significantly inhibit the secretion of proinflammatory cytokines IL-6, MCP-1, IFN-γ, TNF-α and IL-2
total cholesterol in liver and serum ([3]; low, medium and high doses of KD): significantly inhibited; also recorded: significantly reduced
serum LDL level ([3]; low-dose KD): could significantly inhibit the level of serum LDL in mice
expression of COX-2 and M1-type macrophage molecules IL6 and IFN ([3]; medium and high dose KD): significantly inhibited the expression level of inflammatory molecule COX-2; also recorded: could significantly inhibit the expression level of inflammatory molecule COX-2 and the inflammatory M1-type macrophage molecules IL6 and IFN
expression of M2-type macrophage marker molecules CD206, ARG1 and IL1β ([3]; medium and high dose KD): promoted the expression of anti-inflammatory M2-type macrophage marker molecules CD206, ARG1 and IL1; also recorded: promote the expression of anti-inflammatory M2-type macrophage marker molecules CD206, ARG1 and IL1β
therapeutic effect on nonalcoholic fatty liver (overall, vs silymarin 50 mg/kg) ([3]; mouse, in vivo): the therapeutic effect was better than that of silymarin; also recorded: significantly better than that of silymarin; also recorded: has a good therapeutic effect on non-alcoholic fatty liver
liver histopathological damage (H&E staining) ([4]; 30, 20 and 10 mg/kg KD): could reduce liver histopathological damage
Diameter of hepatic portal vein [4, 6]: 0.65 ± 0.07 mm
Diameter of inferior vena cava [4, 6]: 1.15 ± 0.07 mm
Length of the spleen [4, 6]: 5.40 ± 0.71 mm
Oblique diameter of right lobe of liver [4, 6]: 8.35 ± 0.78 mm
Thickness of the left lobe of liver [4, 6]: 3.65 ± 0.49 mm
Thickness of the spleen [4, 6]: 1.50 ± 0.14 mm
Diameter of hepatic portal vein ([4]; NAFL stage, KD 30 mg/kg): 0.75 ± 0.07 mm
Diameter of inferior vena cava ([4]; NAFL stage, KD 30 mg/kg): 1.50 ± 0.14 mm
Length of the spleen ([4]; NAFL stage, KD 30 mg/kg): 5.40 ± 0.99 mm
Oblique diameter of right lobe of liver ([4]; NAFL stage, KD 30 mg/kg): 7.25 ± 0.21 mm
Thickness of the left lobe of liver ([4]; NAFL stage, KD 30 mg/kg): 4.35 ± 1.20 mm
Thickness of the spleen ([4]; NAFL stage, KD 30 mg/kg): 1.65 ± 0.07 mm
IFN-γ ([4]; NASH, KD 10 mg/kg): 36.71 ± 0.32^ΔΔ pg/mL
IL-2 ([4]; NASH, KD 10 mg/kg): 101.31 ± 9.79^##Δ pg/mL
IL-10 ([4]; NASH, KD 10 mg/kg): 66.84 ± 2.73 pg/mL
IL-12 ([4]; NASH, KD 10 mg/kg): 127.64 ± 2.71 pg/mL
NO ([4]; NASH, KD 10 mg/kg): 56.22 ± 5.32^ΔΔ μmol/L
TNF-α ([4]; NASH, KD 10 mg/kg): 4.10 ± 0.04 pg/mL
IFN-γ ([4]; NASH, KD 20 mg/kg): 33.86 ± 0.65 pg/mL
IL-2 ([4]; NASH, KD 20 mg/kg): 133.29 ± 4.57 pg/mL
IL-10 ([4]; NASH, KD 20 mg/kg): 84.12 ± 0.23^##ΔΔ pg/mL
IL-12 ([4]; NASH, KD 20 mg/kg): 123.05 ± 0.71 pg/mL
NO ([4]; NASH, KD 20 mg/kg): 51.38 ± 1.08^#ΔΔ μmol/L
TNF-α ([4]; NASH, KD 20 mg/kg): 3.03 ± 0.26^##ΔΔ pg/mL
IFN-γ ([4]; NASH, KD 30 mg/kg): 32.43 ± 0.98 pg/mL
IL-2 ([4]; NASH, KD 30 mg/kg): 169.13 ± 13.10^##Δ pg/mL
IL-10 ([4]; NASH, KD 30 mg/kg): 91.20 ± 0.56^##ΔΔ pg/mL
IL-12 ([4]; NASH, KD 30 mg/kg): 106.38 ± 1.18^##Δ pg/mL
NO ([4]; NASH, KD 30 mg/kg): 48.15 ± 1.86^##ΔΔ μmol/L
TNF-α ([4]; NASH, KD 30 mg/kg): 2.35 ± 0.10^##ΔΔ pg/mL
serum ALT and AST ([4]; during development of liver fibrosis): decreased after KD treatment
expression of MMP-13 in the liver (qPCR) [4, 7]: promoted the expression of matrix metalloproteinase-13 (MMP-13)
expression of α-SMA, Col I and TIMP-1 in the liver (qPCR) [4, 7]: could effectively inhibit the expression
release of inflammatory response marker NO [4, 7]: inhibited the release of the inflammatory response marker NO
secretion of IL-10 (Th2-type cells) [4, 7]: promoted the secretion of the inflammatory cytokine IL-10
secretion of inflammatory cytokines IFN-γ, TNF-α and IL-2 (Th1) [4, 7]: reduced the secretion of the inflammatory cytokines IFN-γ, TNF-α and IL-2
width of the inferior vena cava, left lobe thickness, right lobe obliquity and spleen thickness (ultrasound) ([4]; high, middle and low dose groups): can significantly reduce the width of the inferior vena cava, left lobe thickness, right lobe obliquity and spleen thickness
IFN-γ ([4]; liver fibrosis, KD 10 mg/kg): 85.76 ± 8.25 pg/mL
IL-2 ([4]; liver fibrosis, KD 10 mg/kg): 101.73 ± 0.70^##ΔΔ pg/mL
IL-10 ([4]; liver fibrosis, KD 10 mg/kg): 128.28 ± 24.84 pg/mL
IL-12 ([4]; liver fibrosis, KD 10 mg/kg): 253.62 ± 7.20 pg/mL
NO ([4]; liver fibrosis, KD 10 mg/kg): 52.13 ± 1.40 µmol/L
TNF-α ([4]; liver fibrosis, KD 10 mg/kg): 13.46 ± 9.31^ΔΔ pg/mL
IFN-γ ([4]; liver fibrosis, KD 20 mg/kg): 57.19 ± 1.65^##ΔΔ pg/mL
IL-2 ([4]; liver fibrosis, KD 20 mg/kg): 104.72 ± 0.71^##ΔΔ pg/mL
IL-10 ([4]; liver fibrosis, KD 20 mg/kg): 206.66 ± 1.91^##ΔΔ pg/mL
IL-12 ([4]; liver fibrosis, KD 20 mg/kg): 174.77 ± 2.72 pg/mL
NO ([4]; liver fibrosis, KD 20 mg/kg): 54.11 ± 15.40 µmol/L
TNF-α ([4]; liver fibrosis, KD 20 mg/kg): 8.41 ± 0.52 pg/mL
IFN-γ ([4]; liver fibrosis, KD 30 mg/kg): 53.38 ± 1.65^##ΔΔ pg/mL
IL-2 ([4]; liver fibrosis, KD 30 mg/kg): 93.91 ± 2.05^##ΔΔ pg/mL
IL-10 ([4]; liver fibrosis, KD 30 mg/kg): 140.44 ± 7.64 pg/mL
IL-12 ([4]; liver fibrosis, KD 30 mg/kg): 242.08 ± 5.44 pg/mL
NO ([4]; liver fibrosis, KD 30 mg/kg): 59.06 ± 1.40 µmol/L
TNF-α ([4]; liver fibrosis, KD 30 mg/kg): 2.38 ± 0.57 pg/mL
fiber formation (Masson staining) ([4]; mouse, in vivo): had inhibitory effect on the fiber formation
oxidative stress injuries (MDA, SOD) ([4]; mouse, in vivo): could reverse these oxidative stress injuries
secretion of ALT, AST and inflammatory cytokines ([4]; mouse, in vivo): did not affect the secretion of ALT, AST and inflammatory cytokines
shear wave velocity of SWE (liver) ([4]; mouse, in vivo): could significantly reduce the shear wave velocity
